Drawing on the supplement of paper PMC10307832, this text covers relative viability for seven cell lines.

Holding throughout (assay): relative viability (nuclei count vs DMSO), 5 days (fraction); higher = more cells survive
Compound in the test “Dactolisib + Luminespib”: Cn1c(=O)n(-c2ccc(C(C)(C)C#N)cc2)c2c3cc(-c4cnc5ccccc5c4)ccc3ncc21 [Dactolisib] + CCNC(=O)c1noc(-c2cc(C(C)C)c(O)cc2O)c1-c1ccc(CN2CCOCC2)cc1 [Luminespib] (partner 0.01 µM)
The method in brief: (§1)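 Lung cancer cell lines, seeded in 1536-well plates, were treated the following day by pin tool with a single drug or with five library-drug doses (not always all listed) in √10 steps on top of a fixed anchor-drug dose. Cells were fixed and nuclei stained in one step after 5 days, and nuclei were counted. Relative viability is the nuclei count for treated wells divided by that for vehicle wells, reported as medians of duplicate plates.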

Compound in the test “AZ505 + Crizotinib”: C1CCC(CC1)N(CCNCCC2=C3C(=C(C=C2)O)NC(=O)CO3)C(=O)CCNCCC4=CC(=C(C=C4)Cl)Cl [AZ505] + C[C@@H](Oc1cc(-c2cnn(C3CCNCC3)c2)cnc1N)c1c(Cl)ccc(F)c1Cl [Crizotinib] (partner 1 µM)
An outline of the steps:
as §1

Compound in the test “Dactolisib + Dasatinib”: Cn1c(=O)n(-c2ccc(C(C)(C)C#N)cc2)c2c3cc(-c4cnc5ccccc5c4)ccc3ncc21 [Dactolisib] + Cc1nc(Nc2ncc(C(=O)Nc3c(C)cccc3Cl)s2)cc(N2CCN(CCO)CC2)n1 [Dasatinib] (partner 0.075 µM)
An outline of the steps: as §1

Compound in the test “Dactolisib + Navitoclax”: Cn1c(=O)n(-c2ccc(C(C)(C)C#N)cc2)c2c3cc(-c4cnc5ccccc5c4)ccc3ncc21 [Dactolisib] + CC1(C)CCC(c2ccc(Cl)cc2)=C(CN2CCN(c3ccc(C(=O)NS(=O)(=O)c4ccc(N[C@H](CCN5CCOCC5)CSc5ccccc5)c(S(=O)(=O)C(F)(F)F)c4)cc3)CC2)C1 [Navitoclax] (partner 0.5 µM)
An outline of the steps:
as §1

Take NCI-H1666: the relative viability in the test with Dactolisib + Luminespib (first compound 0.002 µM) was determined as 1.1; with Dactolisib + Luminespib (first compound 0.006325 µM), 0.963; with Dactolisib + Luminespib (first compound 0.02 µM), 1.02; in the test with Dactolisib + Luminespib (first compound 0.06325 µM), 0.746; with Dactolisib + Luminespib (first compound 0.2 µM), 0.788; in the test with AZ505 + Crizotinib (first compound 0.08 µM) it was 0.903. Further, the relative viability with AZ505 + Crizotinib (first compound 0.253 µM) was 1.03; in the test with AZ505 + Crizotinib (first compound 0.8 µM), 0.96; in the test with AZ505 + Crizotinib (first compound 2.53 µM), 0.997; in the test with AZ505 + Crizotinib (first compound 8 µM), 0.954; with Dactolisib + Dasatinib (first compound 0.002 µM), 0.877; in the test with Dactolisib + Dasatinib (first compound 0.006325 µM), 0.793. Moreover, the relative viability was determined as 0.791 in the test with Dactolisib + Dasatinib (first compound 0.02 µM); 0.677 in the test with Dactolisib + Dasatinib (first compound 0.06325 µM); 0.588 with Dactolisib + Dasatinib (first compound 0.2 µM); 1.3 in the test with Dactolisib + Navitoclax (first compound 0.002 µM); 0.673 with Dactolisib + Navitoclax (first compound 0.006325 µM); 0.927 in the test with Dactolisib + Navitoclax (first compound 0.02 µM). The relative viability came to 0.667 with Dactolisib + Navitoclax (first compound 0.06325 µM) and 0.31 in the test with Dactolisib + Navitoclax (first compound 0.2 µM).
As to NCI-H1734, the relative viability with Dactolisib + Luminespib (first compound 0.002 µM) came out at 0.151; with Dactolisib + Luminespib (first compound 0.006325 µM), 0.211; in the test with Dactolisib + Luminespib (first compound 0.02 µM), 0.196; with Dactolisib + Luminespib (first compound 0.06325 µM), 0.184; with Dactolisib + Luminespib (first compound 0.2 µM), 0.169; in the test with AZ505 + Crizotinib (first compound 0.08 µM), 0.66. Further, the relative viability with AZ505 + Crizotinib (first compound 0.253 µM) stood at 0.657; with AZ505 + Crizotinib (first compound 0.8 µM), 0.591; with AZ505 + Crizotinib (first compound 2.53 µM) it was 0.623; with AZ505 + Crizotinib (first compound 8 µM), 0.658; in the test with Dactolisib + Dasatinib (first compound 0.002 µM) it was 0.499; with Dactolisib + Dasatinib (first compound 0.006325 µM), 0.362. The relative viability in the test with Dactolisib + Dasatinib (first compound 0.02 µM) is 0.407; with Dactolisib + Dasatinib (first compound 0.06325 µM), 0.2; with Dactolisib + Dasatinib (first compound 0.2 µM), 0.162; with Dactolisib + Navitoclax (first compound 0.002 µM), 0.839; in the test with Dactolisib + Navitoclax (first compound 0.006325 µM), 0.647; with Dactolisib + Navitoclax (first compound 0.02 µM) it was 0.743. In addition, the figures for the relative viability in the test with Dactolisib + Navitoclax (first compound 0.06325 µM) and with Dactolisib + Navitoclax (first compound 0.2 µM) were 0.275 and 0.234, respectively.
As to NCI-H1755, the relative viability stood at 0.298 in the test with Dactolisib + Luminespib (first compound 0.002 µM); 0.399 with Dactolisib + Luminespib (first compound 0.006325 µM); 0.418 with Dactolisib + Luminespib (first compound 0.02 µM); 0.417 with Dactolisib + Luminespib (first compound 0.06325 µM); 0.359 with Dactolisib + Luminespib (first compound 0.2 µM); 0.767 in the test with AZ505 + Crizotinib (first compound 0.08 µM). The relative viability with AZ505 + Crizotinib (first compound 0.253 µM) is 0.928; with AZ505 + Crizotinib (first compound 0.8 µM), 0.907; with AZ505 + Crizotinib (first compound 2.53 µM) it was 0.87; with AZ505 + Crizotinib (first compound 8 µM), 0.777; with Dactolisib + Dasatinib (first compound 0.002 µM), 0.392; with Dactolisib + Dasatinib (first compound 0.006325 µM) it was 0.401. The relative viability amounted to 0.379 with Dactolisib + Dasatinib (first compound 0.02 µM); 0.412 in the test with Dactolisib + Dasatinib (first compound 0.06325 µM); 0.278 in the test with Dactolisib + Dasatinib (first compound 0.2 µM); 1.09 with Dactolisib + Navitoclax (first compound 0.002 µM); 0.943 with Dactolisib + Navitoclax (first compound 0.006325 µM); 0.928 in the test with Dactolisib + Navitoclax (first compound 0.02 µM). The relative viability in the test with Dactolisib + Navitoclax (first compound 0.06325 µM) turned out to be 0.519; in the test with Dactolisib + Navitoclax (first compound 0.2 µM) it was 0.467.
Regarding NCI-H1792, the relative viability in the test with Dactolisib + Luminespib (first compound 0.002 µM) came to 0.259; with Dactolisib + Luminespib (first compound 0.006325 µM), 0.403; in the test with Dactolisib + Luminespib (first compound 0.02 µM), 0.404; with Dactolisib + Luminespib (first compound 0.06325 µM) it was 0.142; with Dactolisib + Luminespib (first compound 0.2 µM), 0.11; with AZ505 + Crizotinib (first compound 0.08 µM) it was 0.734. In addition, the relative viability in the test with AZ505 + Crizotinib (first compound 0.253 µM) came out at 1.08; in the test with AZ505 + Crizotinib (first compound 0.8 µM), 0.935; with AZ505 + Crizotinib (first compound 2.53 µM), 0.928; in the test with AZ505 + Crizotinib (first compound 8 µM), 1.11; in the test with Dactolisib + Dasatinib (first compound 0.002 µM), 0.752; in the test with Dactolisib + Dasatinib (first compound 0.006325 µM), 0.724. Further, the relative viability with Dactolisib + Dasatinib (first compound 0.02 µM) was determined as 0.724; with Dactolisib + Dasatinib (first compound 0.06325 µM), 0.338; with Dactolisib + Dasatinib (first compound 0.2 µM), 0.206; with Dactolisib + Navitoclax (first compound 0.002 µM), 0.823; with Dactolisib + Navitoclax (first compound 0.006325 µM), 0.692; with Dactolisib + Navitoclax (first compound 0.02 µM), 0.582. Further, the relative viability worked out at 0.381 in the test with Dactolisib + Navitoclax (first compound 0.06325 µM) and 0.181 with Dactolisib + Navitoclax (first compound 0.2 µM).
As to NCI-H1915, the relative viability with Dactolisib + Luminespib (first compound 0.002 µM) is 0.78; in the test with Dactolisib + Luminespib (first compound 0.006325 µM), 0.823; in the test with Dactolisib + Luminespib (first compound 0.02 µM), 0.692; with Dactolisib + Luminespib (first compound 0.06325 µM) it was 0.516; in the test with Dactolisib + Luminespib (first compound 0.2 µM), 0.442; with AZ505 + Crizotinib (first compound 0.08 µM), 0.881. Moreover, the relative viability with AZ505 + Crizotinib (first compound 0.253 µM) came out at 0.948; with AZ505 + Crizotinib (first compound 0.8 µM) it was 0.887; with AZ505 + Crizotinib (first compound 2.53 µM) it was 0.827; in the test with AZ505 + Crizotinib (first compound 8 µM), 0.969; in the test with Dactolisib + Dasatinib (first compound 0.002 µM), 0.357; with Dactolisib + Dasatinib (first compound 0.006325 µM) it was 0.332. Also, the relative viability with Dactolisib + Dasatinib (first compound 0.02 µM) turned out to be 0.308; with Dactolisib + Dasatinib (first compound 0.06325 µM), 0.241; with Dactolisib + Dasatinib (first compound 0.2 µM), 0.175; with Dactolisib + Navitoclax (first compound 0.002 µM) it was 0.783; with Dactolisib + Navitoclax (first compound 0.006325 µM), 0.759; with Dactolisib + Navitoclax (first compound 0.02 µM) it was 0.773. For the same cell line, the relative viability with Dactolisib + Navitoclax (first compound 0.06325 µM) is 0.781; with Dactolisib + Navitoclax (first compound 0.2 µM), 0.484.
On to NCI-H1944, for which the relative viability was 0.957 in the test with Dactolisib + Luminespib (first compound 0.002 µM); 0.724 with Dactolisib + Luminespib (first compound 0.006325 µM); 0.714 in the test with Dactolisib + Luminespib (first compound 0.02 µM); 0.288 with Dactolisib + Luminespib (first compound 0.06325 µM); 0.263 with Dactolisib + Luminespib (first compound 0.2 µM); 1.12 in the test with AZ505 + Crizotinib (first compound 0.08 µM). Moreover, the relative viability was 1.04 with AZ505 + Crizotinib (first compound 0.253 µM); 1.11 with AZ505 + Crizotinib (first compound 0.8 µM); 0.881 with AZ505 + Crizotinib (first compound 2.53 µM); 1.15 with AZ505 + Crizotinib (first compound 8 µM); 0.22 with Dactolisib + Dasatinib (first compound 0.002 µM); 0.2 with Dactolisib + Dasatinib (first compound 0.006325 µM). Moreover, the relative viability with Dactolisib + Dasatinib (first compound 0.02 µM) turned out to be 0.212; with Dactolisib + Dasatinib (first compound 0.06325 µM) it was 0.165; in the test with Dactolisib + Dasatinib (first compound 0.2 µM), 0.148; with Dactolisib + Navitoclax (first compound 0.002 µM) it was 1.06; with Dactolisib + Navitoclax (first compound 0.006325 µM), 0.986; with Dactolisib + Navitoclax (first compound 0.02 µM), 0.933. Moreover, the relative viability came to 0.526 with Dactolisib + Navitoclax (first compound 0.06325 µM) and 0.36 with Dactolisib + Navitoclax (first compound 0.2 µM).
Consider NCI-H1975, for which the relative viability with Dactolisib + Luminespib (first compound 0.002 µM) turned out to be 0.133; in the test with Dactolisib + Luminespib (first compound 0.006325 µM), 0.157; with Dactolisib + Luminespib (first compound 0.02 µM), 0.181; in the test with Dactolisib + Luminespib (first compound 0.06325 µM) it was 0.144; with Dactolisib + Luminespib (first compound 0.2 µM), 0.123; with AZ505 + Crizotinib (first compound 0.08 µM), 0.891. Also, the relative viability with AZ505 + Crizotinib (first compound 0.253 µM) was found to be 0.994; with AZ505 + Crizotinib (first compound 0.8 µM), 0.902; in the test with AZ505 + Crizotinib (first compound 2.53 µM) it was 0.836; in the test with AZ505 + Crizotinib (first compound 8 µM), 0.995; with Dactolisib + Dasatinib (first compound 0.002 µM) it was 0.35; with Dactolisib + Dasatinib (first compound 0.006325 µM), 0.305. Moreover, the relative viability came to 0.246 with Dactolisib + Dasatinib (first compound 0.02 µM); 0.167 with Dactolisib + Dasatinib (first compound 0.06325 µM); 0.135 with Dactolisib + Dasatinib (first compound 0.2 µM); 1.14 with Dactolisib + Navitoclax (first compound 0.002 µM); 1.01 in the test with Dactolisib + Navitoclax (first compound 0.006325 µM); 0.689 with Dactolisib + Navitoclax (first compound 0.02 µM). In addition, the relative viability in the test with Dactolisib + Navitoclax (first compound 0.06325 µM) came to 0.55; with Dactolisib + Navitoclax (first compound 0.2 µM), 0.362.
